Each compound was assayed against T1, Mcl-1/Bim interaction, recombinant human Mcl-1 (171-327) (Homo sapiens, UniProt Q07820) (assay: Cell free Mcl-1: Bim Affinity Assay (Mcl-1 HTRF)). Settings: TR-FRET, 0.1 nM Mcl-1 (171-327), 0.05 nM biotin-Bim (51-76).
T1 construct: made in house
Type: binding
Method in brief: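 TR-FRET competition assay with biotinylated human Bim peptide (residues 51-76); reaction plates incubated overnight before reading. IC50 values came from duplicate data fitted to a four-parameter sigmoidal competition curve.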

T1 sequence (Q07820 171-327): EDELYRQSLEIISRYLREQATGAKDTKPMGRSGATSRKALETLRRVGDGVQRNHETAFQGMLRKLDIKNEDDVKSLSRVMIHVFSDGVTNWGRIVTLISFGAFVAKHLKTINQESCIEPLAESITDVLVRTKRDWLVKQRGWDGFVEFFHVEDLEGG

SMILES	IC50
O=C1NS(=O)(=O)[C@@H]2CC[C@H]2CCC[C@H](O)[C@@H]2CC[C@H]2CN2C[C@@]3(CCCc4cc(Cl)ccc43)COc3ccc1cc32 [Example 91, (1S,3′R,6′R,7′S,11′R,14′R)-6-chloro-7′-hydroxy-3,4-dihydro-2H,17′H-spiro[naphthalene-1,24′-[22]oxa[15]thia[1,16]diazapentacyclo[16.7.2.0^3,6.0^11,14.0^21,26]heptacosa[18,20,26]trien]-17′-one 15′,15′-dioxide]	3.06 nM
O=C1NS(=O)(=O)CCCCNC(=O)[C@@H]2CC[C@H]2CN2C[C@@]3(CCCc4cc(Cl)ccc43)COc3ccc1cc32 [Example 98, (1S,3′R,6′R)-6-chloro-3,4-dihydro-2H,7′H,15′H-spiro[naphthalene-1,22′-[20]oxa[13]thia[1,8,14]triazatetracyclo[14.7.2.0^3,6.0^19,24]pentacosa[16,18,24]triene]-7′,15′-dione 13′,13′-dioxide]	15.5 nM
COCC[C@@H]1CC/C=C/[C@H](O)[C@@H]2CC[C@H]2CN2C[C@@]3(CCCc4cc(Cl)ccc43)COc3ccc(cc32)C(=O)NS1(=O)=O (single isomer, unassigned) [Example 442]	0.292 nM
O=C1NS(=O)(=O)C(CCOC(F)(F)F)CC/C=C/[C@H](O)[C@@H]2CC[C@H]2CN2C[C@@]3(CCCc4cc(Cl)ccc43)COc3ccc1cc32 (single isomer, unassigned) [Example 1012]	0.698 nM
O=C1NS(=O)(=O)CC[C@H](CO)/C=C/[C@H](O)[C@@H]2CC[C@H]2CN2C[C@@]3(CCCc4cc(Cl)ccc43)COc3ccc1cc32 [Example 201, (1S,3′R,6′R,7′S,8′E,10′S)-6-chloro-7′-hydroxy-10′-(hydroxymethyl)-3,4-dihydro-2H,15′H-spiro[naphthalene-1,22′-[20]oxa[13]thia[1,14]diazatetracyclo[14.7.2.0^3,6.0^19,24]pentacosa [8,16,18,24]tetraen]-15′-one 13′,13′-dioxide]	2.69 nM

Next, values leading:

IC50	SMILES
17.8 nM	CO[C@@H]1CCCCCS(=O)(=O)NC(=O)c2ccc3c(c2)N(C[C@@H]2CC[C@H]21)C[C@@]1(CCCc2cc(Cl)ccc21)CO3 [Example 1094, (1S,3′R,6′R,7′R)-6-chloro-7′-methoxy-3,4-dihydro-2H,15′H-spiro [naphthalene-1,22′-[20]oxa[13]thia[1,14]diazatetracyclo[14.7.2.0^3,6.0^19,24]pentacosa [16,18,24]trien]-15′-one 13′,13′-dioxide]
2.77 nM	O=C1NS(=O)(=O)C[C@H](CO)C/C=C/[C@@H](O)[C@@H]2CC[C@H]2CN2C[C@@]3(CCCc4cc(Cl)ccc43)COc3ccc1cc32 (single isomer, unassigned) [Example 1090]
0.367 nM	CO[C@H]1/C=C/CCNS(=O)(=O)NC(=O)c2ccc3c(c2)N(C[C@@H]2CC[C@H]21)C[C@@]1(CCCc2cc(Cl)ccc21)CO3 (single isomer, unassigned) [Example 46]
1.82 nM	CC[C@@H]1CC/C=C/C(NC(C)=O)[C@@H]2CC[C@H]2CN2C[C@@]3(CCCc4cc(Cl)ccc43)COc3ccc(cc32)C(=O)NS1(=O)=O (stereo in doubt) [Example 1076, N-((1S,3′R,6′R,7′R,8′E,12′R)-6-chloro-12′-ethyl-13′,13′-dioxido-15′-oxo-3,4-dihydro-2H-spiro[naphthalene-1,22′-[20]oxa[13]thia[1,14]diazatetracyclo[14.7.2.0^3,6.0^19,24]pentacosa[8,16,18,24]tetraen]-7′-yl)acetamide]
0.115 nM	CCN1CC/C=C/[C@H](OCC(=O)O)[C@@H]2CC[C@H]2CN2C[C@@]3(CCCc4cc(Cl)ccc43)COc3ccc(cc32)C(=O)NS1(=O)=O [Example 44, (((1S,3′R,6′R,7′S,8′E)-6-chloro-12′-ethyl-13′,13′-dioxido-15′-oxo-3,4-dihydro-2H-spiro[naphthalene-1,22′-[20]oxa[13]thia[1,12,14]triazatetracyclo[14.7.2.0^3,6.0^19,24]pentacosa[8,16,18,24]tetraen]-7′-yl)oxy)acetic Acid]
0.943 nM	CC[C@@H]1CC/C=C/[C@H](OCCS(C)(=O)=O)[C@@H]2CC[C@H]2CN2C[C@@]3(CCCc4cc(Cl)ccc43)COc3ccc(cc32)C(=O)NS1(=O)=O [Example 981, (1S,3′R,6′R,7′S,8′E,12′R)-6-chloro-12′-ethyl-7′-(2-(methylsulfonyl)ethoxy)-3,4-dihydro-2H,15′H-spiro[naphthalene-1,22′-[20]oxa[13]thia[1,14]diazatetracyclo[14.7.2.0^3,6.0^19,24]pentacosa [8,16,18,24]tetraen]-15′-one 13′,13′-dioxide]

Same assay, conditions: cell free Mcl-1:Bim TR-FRET, recombinant human Mcl-1 (171-327)

SMILES	IC50
O=C1NS(=O)(=O)CCCCCC(=NO)C2CCC2CN2CC3(CCCc4cc(Cl)ccc43)COc3ccc1cc32 (mixture of isomers) [Example 932, (1S,3′R,6′R,7′Z)-6-chloro-3,4-dihydro-2H,7′H,15′H-spiro[naphthalene-1,22′-[20]oxa[13]thia[1,14]diazatetracyclo[14.7.2.0^3,6.0^19,24]pentacosa [16,18,24]triene]-7,15′-dione 7-OXIME 13′,13′-dioxide and (1S,3′R,6′R,7′E)-6-chloro-3,4-dihydro-2H,7′H,15′H-spiro[naphthalene-1,22′-[20]oxa[13]thia[1,14]diazatetracyclo[14.7.2.0^3,6.0^19,24]pentacosa [16,18,24]triene]-7′,15′-dione 7-OXIME 13′,13′-dioxide]	3.69 nM
O=C1C[C@H](O)[C@@H]2CC[C@H]2CN2C[C@@]3(CCCc4cc(Cl)ccc43)COc3ccc(cc32)C(=O)NS(=O)(=O)CCN1 (single isomer, unassigned) [Example 681]	29 nM
COc1cccc(NC(=O)C[C@@H]2CC/C=C/[C@H](O)[C@@H]3CC[C@H]3CN3C[C@@]4(CCCc5cc(Cl)ccc54)COc4ccc(cc43)C(=O)NS2(=O)=O)c1 (single isomer, unassigned) [Example 628]	3.9 nM
O=C1NS(=O)(=O)CC/C=C\[C@@H](O)C[C@@H]2CC[C@H]2CN2C[C@@]3(CCCc4cc(Cl)ccc43)COc3ccc1cc32 (single isomer, unassigned) [Example 883, (1S,3′R,6′S,8′S,9′Z)-6-chloro-8′-hydroxy-3,4-dihydro-2H,15′H-spiro[naphthalene-1,22′[20]oxa[13]thia[1,14]diazatetracyclo[14.7.2.0^3,6.0^19,24]pentacosa[9,16,18,24]tetraen]-15′-one 13′,13′-dioxide or (1S,3′R,6′S,8′R,9′Z)-6-chloro-8′-hydroxy-3,4-dihydro-2H,15′H-spiro[naphthalene-1,22′-[20]oxa[13]thia[1,14]diazatetracyclo[14.7.2.0^3,6.0^19,24]pentacosa [9,16,18,24]tetraen]-15′-one 13′,13′-dioxide]	48.5 nM
C[C@@H]1CC/C=C/[C@H](O)[C@@H]2CC[C@H]2CN2C[C@@]3(CCc4cc(Cl)ccc43)COc3ccc(cc32)C(=O)NS1(=O)=O [Example 698, (1S,3′R,6′R,7′S,8′E,12′R)-5-chloro-7′-hydroxy-12′-methyl-2,3-dihydro-15′H-spiro[indene-1,22′-[20]oxa[13]thia[1,14]diazatetracyclo[14.7.2.0^3,6.0^19,24]pentacosa [8,16,18,24]tetraen]-15′-one 13′,13′-dioxide]	0.679 nM
O=C1NS(=O)(=O)CCCCC[C@H](NCCO)[C@@H]2CC[C@H]2CN2C[C@@]3(CCCc4cc(Cl)ccc43)COc3ccc1cc32 (single isomer, unassigned) [Example 929]	40 nM

From patent publication US12091425B2 (AMGEN INC., priority 2016, dated 2024)
